Source: ChEMBL document CHEMBL1134184, “Synthesis of sialyl Lewis(x) mimics. Modifications of the 6-position of galactose” (Bioorg Med Chem Lett, 2001)

Target: T1, E-selectin (Homo sapiens, UniProt P16581)
T1 sequence (P16581 whole entry): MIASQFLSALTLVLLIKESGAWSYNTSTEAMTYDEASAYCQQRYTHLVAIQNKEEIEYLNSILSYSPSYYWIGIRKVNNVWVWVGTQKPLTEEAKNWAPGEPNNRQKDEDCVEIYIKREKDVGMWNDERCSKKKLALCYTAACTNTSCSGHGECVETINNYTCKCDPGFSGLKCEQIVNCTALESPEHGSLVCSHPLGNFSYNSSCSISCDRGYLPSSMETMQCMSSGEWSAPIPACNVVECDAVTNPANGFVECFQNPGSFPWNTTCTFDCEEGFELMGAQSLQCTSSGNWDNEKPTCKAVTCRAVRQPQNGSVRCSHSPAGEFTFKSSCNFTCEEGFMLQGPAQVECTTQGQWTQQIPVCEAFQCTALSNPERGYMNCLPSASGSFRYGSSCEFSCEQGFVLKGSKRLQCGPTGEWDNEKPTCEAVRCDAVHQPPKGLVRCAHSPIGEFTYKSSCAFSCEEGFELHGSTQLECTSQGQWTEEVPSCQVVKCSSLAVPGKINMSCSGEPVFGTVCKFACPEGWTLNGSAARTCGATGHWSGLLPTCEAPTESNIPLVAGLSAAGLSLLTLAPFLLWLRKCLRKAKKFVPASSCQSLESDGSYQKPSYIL
Experiment: Inhibitory concentration of compound to block the binding of sLE Xto E-selectin

Compound | IC50 [mM]
CC1OC(OC2CCCCC2OC2OC(CNC(=O)c3ccccc3)C(O)C(OC(Cc3ccccc3)C(=O)O)C2O)C(O)C(O)C1O (stereo not given) | > 10
C[C@@H]1O[C@@H](O[C@@H]2CCCC[C@H]2O[C@@H]2O[C@@H](C(=O)O)[C@H](O)[C@H](O[C@@H](CC3CCCCC3)C(=O)O)[C@@H]2O)[C@@H](O)[C@@H](O)[C@@H]1O | > 10
C[C@@H]1O[C@@H](O[C@@H]2CCCC[C@H]2O[C@@H]2O[C@@H](C(=O)O)[C@H](O)[C@H](O[C@@H](Cc3ccccc3)C(=O)O)[C@@H]2O)[C@@H](O)[C@@H](O)[C@@H]1O | > 10
CC(=O)NCC1OC(OC2CCCCC2OC2OC(C)C(O)C(O)C2O)C(O)C(OC(Cc2ccccc2)C(=O)O)C1O (stereo not given) | > 10

Further lines, results first:

IC50 [mM] | Compound
> 10 | C[C@@H]1O[C@@H](O[C@@H]2CCCC[C@H]2O[C@@H]2O[C@@H](COS(=O)(=O)O)[C@H](O)[C@H](O[C@@H](Cc3ccccc3)C(=O)O)[C@@H]2O)[C@@H](O)[C@@H](O)[C@@H]1O
0.35 | C[C@@H]1O[C@@H](O[C@@H]2CCCC[C@H]2O[C@@H]2O[C@@H](CO)[C@H](O)[C@H](O[C@@H](Cc3ccccc3)C(=O)O)[C@@H]2O)[C@@H](O)[C@@H](O)[C@@H]1O
> 10 | CC1OC(OC2CCCCC2OC2OC(C(N)=O)C(O)C(O[C@@H](CC3CCCCC3)C(=O)O)C2O)C(O)C(O)C1O (stereo not given in full)
> 10 | CC1OC(OC2CCCCC2OC2OC(CN)C(O)C(O[C@@H](Cc3ccccc3)C(=O)O)C2O)C(O)C(O)C1O (stereo not given in full)
0.08 | C[C@@H]1O[C@@H](O[C@@H]2CCCC[C@H]2O[C@@H]2O[C@@H](CO)[C@H](O)[C@H](O[C@@H](CC3CCCCC3)C(=O)O)[C@@H]2O)[C@@H](O)[C@@H](O)[C@@H]1O
1 | COC(=O)CCCCCCCCO[C@@H]1OC(CO)[C@@H](O[C@@H]2O[C@@H](CO)[C@H](O)[C@H](O[C@]3(C(=O)O)C[C@@H](O)[C@@H](NC(C)=O)[C@@H](C(O)C(O)CO)O3)[C@@H]2O)[C@@H](O[C@@H]2O[C@H](C)[C@@H](O)[C@H](O)C2O)[C@@H]1NC(C)=O (stereo not given in full)
